Source: US20240425499A1, “TYRO3 INHIBITORS” (HALIA THERAPEUTICS, INC., priority 2021, published 2024)

The molecules below were run against recombinant human TYRO3 (Homo sapiens (Human), UniProt Q06418) (assay: TYRO3 enzymatic assay (radiometric [32P]-ATP, Poly(Glu,Tyr) substrate)). Details: recombinant human TYRO3, [32P]-ATP.
Type: biochemical
Procedure: Poly(Glu, Tyr) sodium salt (Glu:Tyr (4:1), quality level 200, molecular weight 5,000-20,000, obtained from Sigma Aldrich, catalogue #P7244, assay concentration 0.20 mg/mL) and recombinant human TYRO3 (obtained from ThermoFisher Scientific, catalogue #PV3828, assay concentration 2 nM) were mixed in assay buffer (20 mM Hepes pH 7.5, 10 mM MgCl2, 1 mM EGTA, 0.02% Brij35, 0.02 mg/ml BSA, 0.1 mM Na3VO4, 2 mM DTT, 1% DMSO, with added MnCl2 at a final concentration of 2 mM). Compounds of interest (in DMSO, serial 3-fold dilution from 10 μM to 0.5 nM) or control (1% DMSO) were dispensed into the kinase reaction mixture by Acoustic technology (Echo550; nanoliter range). After incubation at room temperature for 20 minutes, the kinase reaction was initiated by addition of [^32P]-ATP (Specific activity 10 μCi/μl) and the mixture was incubated at room temperature for 2 hours. The reaction was then stopped by spotting the reaction mixture on strips of phosphocellulose P81 paper. Following washing, the radioactivity of the P81 paper was measured and kinase activity data were expressed as the percent remaining kinase activity in test samples compared to vehicle (dimethyl sulfoxide) reactions. IC50 values and curve fits were obtained using Prism (GraphPad Software).

Chain of recombinant human TYRO3 (Q06418 41-890): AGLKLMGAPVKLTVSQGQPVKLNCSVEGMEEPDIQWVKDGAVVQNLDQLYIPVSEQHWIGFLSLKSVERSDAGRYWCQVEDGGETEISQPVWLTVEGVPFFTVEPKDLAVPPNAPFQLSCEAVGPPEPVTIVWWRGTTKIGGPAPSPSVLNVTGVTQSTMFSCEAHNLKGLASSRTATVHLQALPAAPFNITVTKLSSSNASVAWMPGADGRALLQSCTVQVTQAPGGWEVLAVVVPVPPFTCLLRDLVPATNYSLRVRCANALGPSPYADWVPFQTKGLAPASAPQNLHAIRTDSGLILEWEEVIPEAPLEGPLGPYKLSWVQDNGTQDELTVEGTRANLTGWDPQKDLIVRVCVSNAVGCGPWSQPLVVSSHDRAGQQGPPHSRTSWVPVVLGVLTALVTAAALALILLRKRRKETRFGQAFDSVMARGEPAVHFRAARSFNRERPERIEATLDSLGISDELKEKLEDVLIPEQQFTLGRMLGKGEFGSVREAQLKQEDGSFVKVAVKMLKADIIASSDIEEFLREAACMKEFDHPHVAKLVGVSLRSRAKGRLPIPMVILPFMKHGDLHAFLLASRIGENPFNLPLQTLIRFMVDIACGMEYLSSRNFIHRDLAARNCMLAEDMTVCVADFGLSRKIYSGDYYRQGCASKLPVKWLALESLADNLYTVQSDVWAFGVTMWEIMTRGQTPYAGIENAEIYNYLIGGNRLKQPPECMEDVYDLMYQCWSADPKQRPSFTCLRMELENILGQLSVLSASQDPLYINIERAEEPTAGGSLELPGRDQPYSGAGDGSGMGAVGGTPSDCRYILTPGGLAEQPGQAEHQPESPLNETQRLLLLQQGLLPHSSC

SMILES | IC50 [nM]
COc1ccc(-c2c[nH]c3ncc(-c4ccc(CN5CCCC(OC(C)=O)C5)cc4)cc23)cn1 (centres unmarked) [compound 69, 1-(4-(3-(6-methoxypyridin-3-yl)-1H-pyrrolo[2,3-b]pyridin-5-yl)benzyl)piperidin-3-yl acetate] | 151 to 500
COCC1CCCN(Cc2ccc(-c3cnc4[nH]cc(-c5ccc(OC)nc5)c4c3)cc2)C1 (centres unmarked) [compound 70, 5-(4-((3-(methoxymethyl)piperidin-1-yl)methyl)phenyl)-3-(6-methoxypyridin-3-yl)-1H-pyrrolo[2,3-b]pyridine] | 51 to 150
COc1ccc(-c2c[nH]c3ncc(-c4ccc(CN5CCC(C)(O)CC5)cc4)cc23)cn1 [compound 71, 1-(4-(3-(6-methoxypyridin-3-yl)-1H-pyrrolo[2,3-b]pyridin-5-yl)benzyl)-4-methylpiperidin-4-ol] | 51 to 150
CNC1CCN(Cc2ccc(-c3cnc4[nH]cc(-c5ccc(OC)nc5)c4c3)cc2)CC1 [compound 73] | 151 to 500
COc1ccc(-c2c[nH]c3ncc(-c4ccc(CN5CCC(N(C)C)CC5)cc4)cc23)cn1 [compound 74, 1-(4-(3-(6-methoxypyridin-3-yl)-1H-pyrrolo[2,3-b]pyridin-5-yl)benzyl)-N,N-dimethylpiperidin-4-amine] | 151 to 500
CC1(O)CCN(c2ccc(-c3cnc4[nH]cc(-c5ccc6[nH]ccc6c5)c4c3)cc2)CC1 [compound 77, 1-(4-(3-(1H-indol-5-yl)-1H-pyrrolo[2,3-b]pyridin-5-yl)phenyl)-4-methylpiperidin-4-ol] | 151 to 500
CCN1CCc2cc(-c3c[nH]c4ncc(-c5ccc(CN6CCCC(O)C6)cc5)cc34)ccc2C1 (centres unmarked) [compound 81, 1-(4-(3-(2-ethyl-1,2,3,4-tetrahydroisoquinolin-6-yl)-1H-pyrrolo[2,3-b]pyridin-5-yl)benzyl)piperidin-3-ol] | 51 to 150
CN1CCc2cc(-c3c[nH]c4ncc(-c5ccc(CN6CCCC(CO)C6)cc5)cc34)ccc2C1 (centres unmarked) [compound 82, (1-(4-(3-(2-methyl-1,2,3,4-tetrahydroisoquinolin-6-yl)-1H-pyrrolo[2,3-b]pyridin-5-yl)benzyl)piperidin-3-yl)methanol] | 51 to 150
